Assay results taken from PubChem BioAssay (NCI).
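Growth conditions: 96-well plates. Treatment: test compound, 48 hours, 5 concentrations. Analysis: linear interpolation between bracketing concentrations; unreached endpoints set to highest concentration. GI50: concentration for 50% inhibition of growth. TGI is the concentration that stops growth completely.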

Legend:
Experiment in all cases: NCI anticancer screen, dose series, 48 h
[1] = test system: 786-0 renal
[2] = test system: A498 renal
[3] = test system: A549 NSCLC
[4] = test system: ACHN renal
[5] = test system: BT-549 breast
[6] = test system: CAKI-1 renal
[7] = test system: CCRF-CEM leukemia
[8] = test system: COLO 205 colon
[9] = test system: DU-145 prostate
[10] = test system: EKVX NSCLC
[11] = test system: HCC-2998 colon
[12] = test system: HCT-116 colon
[13] = test system: HCT-15 colon
[14] = test system: HL-60(TB) leukemia
[15] = test system: HOP-62 NSCLC
[16] = test system: HOP-92 NSCLC
[17] = test system: HS 578T breast
[18] = test system: HT29 colon
[19] = test system: IGROV1 ovarian
[20] = test system: K-562 leukemia
[21] = test system: KM12 colon
[22] = test system: LOX IMVI melanoma
[23] = test system: M14 melanoma
[24] = test system: MALME-3M melanoma
[25] = test system: MCF7 breast
[26] = test system: MDA-MB-231 breast
[27] = test system: MDA-MB-435
[28] = test system: MOLT-4 leukemia
[29] = test system: NCI-H226 lung
[30] = test system: NCI-H23 lung
[31] = test system: NCI-H460 lung
[32] = test system: NCI-H522 lung
[33] = test system: NCI/ADR-RES ovarian
[34] = test system: OVCAR-3 ovarian
[35] = test system: OVCAR-4 ovarian
[36] = test system: OVCAR-5 ovarian
[37] = test system: OVCAR-8 ovarian
[38] = test system: PC-3 prostate
[39] = test system: RPMI-8226 leukemia
[40] = test system: SF-268 CNS
[41] = test system: SF-295 CNS
[42] = test system: SF-539 CNS
[43] = test system: SK-MEL-2 melanoma
[44] = test system: SK-MEL-28 melanoma
[45] = test system: SK-MEL-5 melanoma
[46] = test system: SK-OV-3 ovarian
[47] = test system: SN12C renal
[48] = test system: SNB-19 CNS
[49] = test system: SNB-75 CNS
[50] = test system: SR leukemia
[51] = test system: SW-620 colon
[52] = test system: T-47D breast
[53] = test system: TK-10 renal
[54] = test system: U251 CNS
[55] = test system: UACC-257 melanoma
[56] = test system: UACC-62 melanoma
[57] = test system: UO-31 renal
[58] = test system: RXF 393 renal

CC(C)(C)Nc1nc2c(OCCc3ccccc3)cccn2c1-c1cccc(Oc2ccccc2)c1
GI50 [1]: 3.8 µM
TGI [1]: > 100 µM
GI50 [2]: 8.91 µM
TGI [2]: 83.9 µM
GI50 [3]: 7.42 µM
TGI [3]: > 100 µM
GI50 [4]: 7.67 µM
TGI [4]: > 100 µM
GI50 [5]: 3.48 µM
TGI [5]: 29.7 µM
GI50 [6]: 9.11 µM
TGI [6]: > 100 µM
GI50 [7]: 7.07 µM
TGI [7]: > 100 µM
GI50 [8]: 12.3 µM
TGI [8]: 25.9 µM
GI50 [9]: 19.4 µM
TGI [9]: > 100 µM
GI50 [10]: 4.54 µM
TGI [10]: > 100 µM
GI50 [11]: 6.21 µM
TGI [11]: > 100 µM
GI50 [12]: 3.42 µM
TGI [12]: > 100 µM
GI50 [13]: 3.89 µM
TGI [13]: > 100 µM
GI50 [14]: 18.6 µM
TGI [14]: > 100 µM
GI50 [15]: 15.1 µM
TGI [15]: > 100 µM
GI50 [16]: 2.22 µM
TGI [16]: 7.08 µM
GI50 [17]: 5.51 µM
TGI [17]: > 100 µM
GI50 [18]: 3.75 µM
TGI [18]: > 100 µM
GI50 [19]: 12.4 µM
TGI [19]: > 100 µM
GI50 [20]: 6.18 µM
TGI [20]: > 100 µM
GI50 [21]: 7.42 µM
TGI [21]: > 100 µM
GI50 [22]: 8.54 µM
TGI [22]: 41.2 µM
GI50 [23]: 18.6 µM
TGI [23]: > 100 µM
GI50 [24]: 8.12 µM
TGI [24]: > 100 µM
GI50 [25]: 4.34 µM
TGI [25]: > 100 µM
GI50 [26]: 18.7 µM
TGI [26]: 83 µM
GI50 [27]: 4.97 µM
TGI [27]: > 100 µM
GI50 [28]: 11 µM
TGI [28]: > 100 µM
GI50 [29]: 3.45 µM
TGI [29]: > 100 µM
GI50 [30]: 5.86 µM
TGI [30]: > 100 µM
GI50 [31]: 4.6 µM
TGI [31]: > 100 µM
GI50 [32]: 6.95 µM
TGI [32]: > 100 µM
GI50 [33]: 7.51 µM
TGI [33]: > 100 µM
GI50 [34]: 3.71 µM
TGI [34]: > 100 µM
GI50 [35]: 4 µM
TGI [35]: > 100 µM
GI50 [36]: 17.8 µM
TGI [36]: > 100 µM
GI50 [37]: 14.8 µM
TGI [37]: > 100 µM
GI50 [38]: 4 µM
TGI [38]: > 100 µM
GI50 [39]: 3.4 µM
TGI [39]: > 100 µM
GI50 [40]: 8.03 µM
TGI [40]: > 100 µM
GI50 [41]: 5.54 µM
TGI [41]: > 100 µM
GI50 [42]: 16.3 µM
TGI [42]: 43.1 µM
GI50 [43]: 5.16 µM
TGI [43]: 26.8 µM
GI50 [44]: 4.87 µM
TGI [44]: > 100 µM
GI50 [45]: 4.95 µM
TGI [45]: 17.6 µM
GI50 [46]: 24.2 µM
TGI [46]: > 100 µM
GI50 [47]: 5.17 µM
TGI [47]: > 100 µM
GI50 [48]: 6.62 µM
TGI [48]: > 100 µM
GI50 [49]: 5.53 µM
TGI [49]: > 100 µM
GI50 [50]: 12.3 µM
TGI [50]: > 100 µM
GI50 [51]: 7.97 µM
TGI [51]: > 100 µM
GI50 [52]: 3.13 µM
TGI [52]: > 100 µM
GI50 [53]: 26.9 µM
TGI [53]: > 100 µM
GI50 [54]: 3.89 µM
TGI [54]: > 100 µM
GI50 [55]: 4.1 µM
TGI [55]: > 100 µM
GI50 [56]: 3.43 µM
TGI [56]: 53.8 µM
GI50 [57]: 3.13 µM
TGI [57]: 80.7 µM

Cn1ccnc1C(=O)/C=C/c1ccc(NC(=O)Nc2ccccc2)cc1
GI50 [1]: 19.1 µM
TGI [1]: 47.3 µM
GI50 [2]: 21.3 µM
TGI [2]: 65.6 µM
GI50 [3]: 21.8 µM
TGI [3]: > 100 µM
GI50 [4]: 23.1 µM
TGI [4]: 72 µM
GI50 [5]: 13.6 µM
TGI [5]: 29.9 µM
GI50 [6]: 20.8 µM
TGI [6]: 99.3 µM
GI50 [7]: 21.5 µM
TGI [7]: > 100 µM
GI50 [8]: 16.9 µM
TGI [8]: 31.6 µM
GI50 [9]: 12.5 µM
TGI [9]: 32.5 µM
GI50 [10]: 22.6 µM
TGI [10]: 63.4 µM
GI50 [11]: 14.7 µM
TGI [11]: 28.6 µM
GI50 [12]: 13.3 µM
TGI [12]: 26.6 µM
GI50 [13]: 7.16 µM
TGI [13]: 27.2 µM
GI50 [14]: 15.6 µM
TGI [14]: 69.1 µM
GI50 [15]: 24.1 µM
TGI [15]: 69.2 µM
GI50 [16]: 20.6 µM
TGI [16]: 69.1 µM
GI50 [17]: 33.7 µM
TGI [17]: > 100 µM
GI50 [18]: 15.9 µM
TGI [18]: 31 µM
GI50 [19]: 19.1 µM
TGI [19]: 64.1 µM
GI50 [20]: 8.29 µM
TGI [20]: > 100 µM
GI50 [21]: 18.1 µM
TGI [21]: 41.8 µM
GI50 [23]: 20.8 µM
TGI [23]: 58.5 µM
GI50 [24]: 18.3 µM
TGI [24]: 50.7 µM
GI50 [25]: 15.6 µM
TGI [25]: 86.3 µM
GI50 [26]: 16.9 µM
TGI [26]: 34 µM
GI50 [27]: 21.6 µM
TGI [27]: 58.3 µM
GI50 [28]: 16.5 µM
TGI [28]: 85.1 µM
GI50 [29]: 22.9 µM
TGI [29]: > 100 µM
GI50 [30]: 16.1 µM
TGI [30]: 37.3 µM
GI50 [31]: 17.2 µM
TGI [31]: 47.8 µM
GI50 [32]: 13 µM
TGI [32]: 27.3 µM
GI50 [33]: 29 µM
TGI [33]: > 100 µM
GI50 [34]: 29 µM
TGI [34]: > 100 µM
GI50 [35]: 20.2 µM
TGI [35]: > 100 µM
GI50 [36]: 19.9 µM
TGI [36]: 55.1 µM
GI50 [37]: 25 µM
TGI [37]: > 100 µM
GI50 [38]: 18.4 µM
TGI [38]: 49.5 µM
GI50 [39]: 16 µM
TGI [39]: 54.8 µM
GI50 [58]: 12.7 µM
TGI [58]: 27 µM
GI50 [40]: 28.7 µM
TGI [40]: > 100 µM
GI50 [41]: 14.8 µM
TGI [41]: 46.4 µM
GI50 [42]: 13.9 µM
TGI [42]: 28.5 µM
GI50 [43]: 16.8 µM
TGI [43]: 36 µM
GI50 [44]: 16.2 µM
TGI [44]: 32.8 µM
GI50 [45]: 15.7 µM
TGI [45]: 29.4 µM
GI50 [46]: 32.5 µM
TGI [46]: > 100 µM
GI50 [47]: 14.9 µM
TGI [47]: 40.4 µM
GI50 [48]: 16.7 µM
TGI [48]: 42.8 µM
GI50 [49]: 12.9 µM
TGI [49]: 26 µM
GI50 [50]: 4.9 µM
TGI [50]: 75.3 µM
GI50 [51]: 18.7 µM
TGI [51]: 54.3 µM
GI50 [52]: 23.4 µM
TGI [52]: > 100 µM
GI50 [53]: 29.8 µM
TGI [53]: > 100 µM
GI50 [54]: 13.6 µM
TGI [54]: 29.6 µM
GI50 [55]: 16.1 µM
TGI [55]: 38.8 µM
GI50 [56]: 15.3 µM
TGI [56]: 30.8 µM
GI50 [57]: 14.3 µM
TGI [57]: 29.4 µM
